# Experimental data: patent publication US10875876B2, “Cyclized sulfamoylarylamide derivatives and the use thereof as medicaments for the treatment of hepatitis B” (priority 2015, dated 2020)
# Like-named read-outs stand apart in the source and are kept apart here.
# How the values were obtained:
# HBV = experiment: anti HBV activity, HepG2.117 cell line, intracellular HBV DNA by realtime PCR; assay type: cell-based; conditions: HepG2.117 cell line (Tet-off), 3 days of treatment, intracellular HBV DNA quantified by realtime PCR, read-out: HBV-AVE-HepG2.117 EC50
# In short: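 Readout was intracellular HBV DNA by real-time PCR (HBV-specific primers and probe) after 3 days of compound exposure. Serial dilutions were tested in duplicate on HepG2.117 cells, a stable inducible HBV producer in which replication is switched on when doxycycline is absent.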
# [1] = Cytotoxicity in HepG2 cells, Resazurin assay; conditions: human, HepG2 cells, TOX-HepG2-4 d CC50 (μM), HepG2 cells incubated for 4 days, viability by Resazurin assay
# [2] = Hepatitis B virus, HepG2.117, 72 h
Compound,melting point [°C],EC50 (HBV; [2]) [nM],CC50 at 4 days [1] [µM],EC50 (HBV) [nM]
CC(C)C(O)C1COc2c(cn(C)c2C(=O)Nc2ccc(F)c(F)c2)S(=O)(=O)N1 (racemic),247.3,–,–,–
CC(C)C(O)C1COc2c(cn(C)c2C(=O)Nc2ccc(F)c(C#N)c2)S(=O)(=O)N1 (racemic),213.7,–,–,–
"Cc1cccc(CC2(C)COc3c(cn(C)c3C(=O)Nc3ccc(F)c(F)c3)S(=O)(=O)N2)n1 (racemic) [Compound 172, N-(3,4-difluorophenyl)-3,7-dimethyl-3-[(6-methyl-2-pyridyl)methyl]-1,1-dioxo-2,4-dihydropyrrolo[3,4-b][1,4,5]oxathiazepine-6-carboxamide]",206,74,> 25,–
"Cc1cccc(C2(C)COc3c(cn(C)c3C(=O)Nc3ccc(F)c(C(F)F)c3)S(=O)(=O)N2)n1 (racemic) [Compound 177, N-[3-(difluoromethyl)-4-fluoro-phenyl]-3,7-dimethyl-3-(6-methyl-2-pyridyl)-1,1-dioxo-2,4-dihydropyrrolo[3,4-b][1,4,5]oxathiazepine-6-carboxamide]",210.2,8,> 25,–
"Cn1cc2c(c1C(=O)Nc1ccc(F)c(F)c1)OCC(C)(Cc1cccnc1)NS2(=O)=O (racemic) [Compound 199, N-(3,4-difluorophenyl)-3,7-dimethyl-1,1-dioxo-3-(3-pyridylmethyl)-2,4-dihydropyrrolo[3,4-b][1,4,5]oxathiazepine-6-carboxamide]",268.3,15,> 25,–
"Cn1cc2c(c1C(=O)Nc1ccc(F)c(F)c1)OCC(C)(c1cnccn1)NS2(=O)=O (single isomer, unassigned) [Compound 145a, N-(3,4-difluorophenyl)-3,7-dimethyl-1,1-dioxo-3-pyrazin-2-yl-2,4-dihydropyrrolo[3,4-b][1,4,5]oxathiazepine-6-carboxamide]",199.4,–,> 25,14
"Cn1cc2c(c1C(=O)Nc1ccc(F)c(F)c1)OCC(C)(c1ncccn1)NS2(=O)=O (single isomer, unassigned) [Compound 153a, N-(3,4-difluorophenyl)-3,7-dimethyl-1,1-dioxo-3-pyrimidin-2-yl-2,4-dihydropyrrolo[3,4-b][1,4,5]oxathiazepine-6-carboxamide]",228.3,–,> 25,> 125
"Cn1cc2c(c1C(=O)Nc1ccc(F)c(F)c1)OCC(C)(c1ncco1)NS2(=O)=O (single isomer, unassigned) [Compound 160a, N-(3,4-difluorophenyl)-3,7-dimethyl-3-oxazol-2-yl-1,1-dioxo-2,4-dihydropyrrolo[3,4-b][1,4,5]oxathiazepine-6-carboxamide]",239.5,–,> 25,77
"Cc1cccc(C2(C)COc3c(cn(C)c3C(=O)Nc3ccc(F)c(F)c3)S(=O)(=O)N2)n1 (single isomer, unassigned) [Compound 168a, N-(3,4-difluorophenyl)-3,7-dimethyl-3-(6-methyl-2-pyridyl)-1,1-dioxo-2,4-dihydropyrrolo[3,4-b][1,4,5]oxathiazepine-6-carboxamide]",221.9,–,> 25,> 125
"Cn1ccc(C2(C)COc3c(cn(C)c3C(=O)Nc3ccc(F)c(F)c3)S(=O)(=O)N2)n1 (single isomer, unassigned) [Compound 192a, N-(3,4-difluorophenyl)-3,7-dimethyl-3-(1-methylpyrazol-3-yl)-1,1-dioxo-2,4-dihydropyrrolo[3,4-b][1,4,5]oxathiazepine-6-carboxamide]",208.7,36,> 25,–
CCC(O)[C@@H]1COc2c(cn(C)c2C(=O)Nc2ccc(F)c(F)c2)S(=O)(=O)N1 (stereo in doubt),212.6,–,–,–
CCC(O)[C@@H]1COc2c(cn(C)c2C(=O)Nc2ccc(F)c(C(F)F)c2)S(=O)(=O)N1 (stereo in doubt),224.6,–,–,–
Cc1cc(NC(=O)c2c3c(cn2C)S(=O)(=O)N[C@@H](C(O)C2CC2)CO3)ccc1F (stereo in doubt),234.7,–,–,–
Cn1cc2c(c1C(=O)Nc1ccc(F)c(Cl)c1)OC[C@H](C(O)C1CC1)NS2(=O)=O (stereo in doubt),215.8,–,–,–
CC(N)[C@H]1CCc2c(cn(C)c2C(=O)Nc2cc(F)c(F)c(F)c2)S(=O)(=O)N1 (stereo in doubt),281.2,–,–,–
"CCC(O)[C@@H]1COc2c(cn(C)c2C(=O)Nc2ccc(F)c(C#N)c2)S(=O)(=O)N1 (stereo in doubt) [Compound 163, N-(3-cyano-4-fluoro-phenyl)-3-(1-hydroxypropyl)-7-methyl-1,1-dioxo-3,4-dihydro-2H-pyrrolo[3,4-b][1,4,5]oxathiazepine-6-carboxamide]",247,> 125,> 25,–
"Cn1cc2c(c1C(=O)Nc1ccc(F)c(F)c1)C=CC(C(F)(F)F)NS2(=O)=O (stereo not shown) [Compound 8, N-(3,4-difluorophenyl)-7-methyl-1,1-dioxo-3-(trifluoromethyl)-2,3-dihydropyrrolo[3,4-f]thiazepine-6-carboxamide]",245.6,47,> 25,–
"Cn1cc2c(c1C(=O)Nc1ccc(F)c(F)c1)C=CCNS2(=O)=O [Compound 9, N-(3,4-difluorophenyl)-7-methyl-1,1-dioxo-2,3-dihydropyrrolo[3,4-f]-thiazepine-6-carboxamide]",221.9,36,> 25,–
"Cn1cc2c(c1C(=O)Nc1ccc(F)c(F)c1)CC(O)CNS2(=O)=O (stereo not shown) [Compound 68, N-(3,4-difluorophenyl)-4-hydroxy-7-methyl-1,1-dioxo-2,3,4,5-tetrahydropyrrolo[3,4-f]thiazepine-6-carboxamide]",229,230,> 25,–
"Cn1cc2c(c1C(=O)Nc1ccc(F)c(F)c1)OC[C@@H](C(C)(C)O)NS2(=O)=O [Compound 94, (3S)—N-(3,4-difluorophenyl)-3-(1-hydroxy-1-methyl-ethyl)-7-methyl-1,1-dioxo-3,4-dihydro-2H-pyrrolo[3,4-b][1,4,5]oxathiazepine-6-carboxamide]",234.1,80,> 25,–
"C[C@H](O)[C@H]1C=Cc2c(cn(C)c2C(=O)Nc2ccc(F)c(C(F)F)c2)S(=O)(=O)N1 [Compound 96, (3R)—N-[3-(difluoromethyl)-4-fluoro-phenyl]-3-[(1S)-1-hydroxyethyl]-7-methyl-1,1-dioxo-2,3-dihydropyrrolo[3,4-f]thiazepine-6-carboxamide]",182.3,5,> 25,–
"C[C@H](O)[C@H]1C=Cc2c(cn(C)c2C(=O)Nc2cc(F)c(F)c(F)c2)S(=O)(=O)N1 [Compound 98, (3R)-3-[(1S)-1-hydroxyethyl]-7-methyl-1,1-dioxo-N-(3,4,5-trifluorophenyl)-2,3-dihydropyrrolo[3,4-f]thiazepine-6-carboxamide]",244,8,> 25,–
"Cn1cc2c(c1C(=O)Nc1ccc(F)c(C(F)F)c1)OC[C@@H](C(C)(C)O)NS2(=O)=O [Compound 101, (3S)—N-[3-(difluoromethyl)-4-fluoro-phenyl]-3-(1-hydroxy-1-methyl-ethyl)-7-methyl-1,1-dioxo-3,4-dihydro-2H-pyrrolo[3,4-b][1,4,5]oxathiazepine-6-carboxamide]",214.4,14,> 25,–
"Cn1cc2c(c1C(=O)Nc1ccc(F)c(F)c1)CC[C@H](C(C)(C)O)NS2(=O)=O [Compound 102, (3R)—N-(3,4-difluorophenyl)-3-(1-hydroxy-1-methyl-ethyl)-7-methyl-1,1-dioxo-2,3,4,5-tetrahydropyrrolo[3,4-f]thiazepine-6-carboxamide]",218.2,9,> 25,–
"C[C@H](O)[C@H]1CCc2c(cn(C)c2C(=O)Nc2ccc(F)c(C(F)F)c2)S(=O)(=O)N1 [Compound 103, (3R)—N-[3-(difluoromethyl)-4-fluoro-phenyl]-3-[(1S)-1-hydroxyethyl]-7-methyl-1,1-dioxo-2,3,4,5-tetrahydropyrrolo[3,4-f]thiazepine-6-carboxamide]",274.7,6,> 25,–
"Cn1cc2c(c1C(=O)Nc1ccc(F)c(C#N)c1)OC[C@H](C(C)(C)O)NS2(=O)=O [Compound 106, (3R)—N-(3-cyano-4-fluoro-phenyl)-3-(1-hydroxy-1-methyl-ethyl)-7-methyl-1,1-dioxo-3,4-dihydro-2H-pyrrolo[3,4-b][1,4,5]oxathiazepine-6-carboxamide]",260.1,8,> 25,–
"Cn1cc2c(c1C(=O)Nc1ccc(F)c(C#N)c1)OC[C@@H](C(C)(C)O)NS2(=O)=O [Compound 107, (3S)—N-(3-cyano-4-fluoro-phenyl)-3-(1-hydroxy-1-methyl-ethyl)-7-methyl-1,1-dioxo-3,4-dihydro-2H-pyrrolo[3,4-b][1,4,5]oxathiazepine-6-carboxamide]",259.8,80,> 25,–
"Cc1cc(NC(=O)c2c3c(cn2C)S(=O)(=O)N[C@@H]([C@H](C)O)CC3)ccc1F [Compound 112, (3R)—N-(4-fluoro-3-methyl-phenyl)-3-[(1S)-1-hydroxyethyl]-7-methyl-1,1-dioxo-2,3,4,5-tetrahydropyrrolo[3,4-f]thiazepine-6-carboxamide]",287.3,3,> 25,–
